Laboratory results reported in the NIST ThermoML archive (doi:10.1016/j.jct.2013.12.002).
Numbers after ± are expanded uncertainties.

Assay: osmotic coefficient (dimensionless); mn = molality of the nth substance listed, in mol/kg
Details: 323.15 K, 101 kPa, Liquid, Knauer K-7000 vapour pressure osmometer

CCCC[N+]1(C)CCCC1.N#CN=C=[N-] [1-butyl-1-methylpyrrolidinium dicyanamide] + CC(C)O
Details	osmotic coefficient
m1 = 0.0709	0.942 ± 0.013
m1 = 0.1087	0.878 ± 0.013
m1 = 0.1972	0.827 ± 0.014
m1 = 0.2934	0.778 ± 0.014
m1 = 0.3976	0.75 ± 0.015
m1 = 0.4909	0.722 ± 0.016
m1 = 0.7769	0.685 ± 0.016
m1 = 1.175	0.645 ± 0.017
m1 = 1.595	0.631 ± 0.018
m1 = 1.998	0.612 ± 0.018
m1 = 2.419	0.608 ± 0.018
m1 = 2.821	0.595 ± 0.019
m1 = 3.296	0.59 ± 0.019

CCCC[N+]1(C)CCCC1.N#CN=C=[N-] [1-butyl-1-methylpyrrolidinium dicyanamide] + CCC(C)O
Details	osmotic coefficient
m1 = 0.0878	0.793 ± 0.014
m1 = 0.1149	0.755 ± 0.015
m1 = 0.1863	0.705 ± 0.016
m1 = 0.2981	0.641 ± 0.017
m1 = 0.4092	0.621 ± 0.018
m1 = 0.5397	0.591 ± 0.019
m1 = 0.8291	0.58 ± 0.019
m1 = 1.213	0.555 ± 0.02
m1 = 1.611	0.556 ± 0.02
m1 = 2.019	0.548 ± 0.02
m1 = 2.4	0.539 ± 0.02
m1 = 2.776	0.533 ± 0.02
m1 = 3.307	0.523 ± 0.021

CCCC[N+]1(C)CCCC1.N#CN=C=[N-] [1-butyl-1-methylpyrrolidinium dicyanamide] + CCCCCO
Details	osmotic coefficient
m1 = 0.0446	0.63 ± 0.018
m1 = 0.0818	0.59 ± 0.019
m1 = 0.1078	0.558 ± 0.02
m1 = 0.1865	0.512 ± 0.021
m1 = 0.299	0.491 ± 0.022
m1 = 0.3928	0.477 ± 0.022
m1 = 0.5108	0.467 ± 0.022
m1 = 0.8086	0.453 ± 0.023
m1 = 1.191	0.444 ± 0.023
m1 = 1.598	0.435 ± 0.023
m1 = 2.004	0.425 ± 0.024
m1 = 2.406	0.417 ± 0.024
m1 = 2.798	0.409 ± 0.024
m1 = 3.063	0.404 ± 0.024

CCCC[N+]1(C)CCCC1.N#CN=C=[N-] [1-butyl-1-methylpyrrolidinium dicyanamide] + CCCCO
Details	osmotic coefficient
m1 = 0.0577	0.734 ± 0.017
m1 = 0.0761	0.68 ± 0.017
m1 = 0.1089	0.665 ± 0.017
m1 = 0.2006	0.624 ± 0.018
m1 = 0.296	0.602 ± 0.019
m1 = 0.4011	0.587 ± 0.019
m1 = 0.4745	0.581 ± 0.019
m1 = 0.8117	0.57 ± 0.019
m1 = 1.214	0.551 ± 0.02
m1 = 1.617	0.541 ± 0.02
m1 = 2.033	0.532 ± 0.02
m1 = 2.43	0.52 ± 0.021
m1 = 2.845	0.516 ± 0.021
m1 = 3.308	0.508 ± 0.021

CCCC[N+]1(C)CCCC1.N#CN=C=[N-] [1-butyl-1-methylpyrrolidinium dicyanamide] + CCCO
Details	osmotic coefficient
m1 = 0.0836	0.9 ± 0.013
m1 = 0.119	0.858 ± 0.013
m1 = 0.2054	0.8 ± 0.014
m1 = 0.2962	0.743 ± 0.015
m1 = 0.4029	0.71 ± 0.016
m1 = 0.502	0.689 ± 0.016
m1 = 0.7791	0.653 ± 0.017
m1 = 1.182	0.614 ± 0.018
m1 = 1.61	0.587 ± 0.019
m1 = 2	0.576 ± 0.019
m1 = 2.442	0.565 ± 0.02
m1 = 2.865	0.56 ± 0.02
